Reference: publication PMC5650142, “GPR40 partial agonists and AgoPAMs: Differentiating effects on glucose and hormonal secretions in the rodent” (PLoS ONE, 2017)
“And” between values parts separate entries of the source, which are not always exact repeats. Equal entries are not always repeated.

Legend:
GK rats = assay: GK rat chronic efficacy (28 days: glucose, food intake, body weight, GLP-1, GIP, PYY, insulin, glucagon); assay type: in vivo; design: Food Intake Over Time (Fig 3C) / Total Body Weight Change Over Time / Active GLP-1 Levels Over Time: unit not given here; details: for Total Body Weight Change Over Time / Active GLP-1 Levels Over Time / GIP Levels Over Time / PYY Levels Over Time / Plasma Insulin Over Time: GK rats
Summary of the method: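 Daily oral gavage for 28 days, AP1 or AP3 at 30 mg/kg in 0.5% methylcellulose; MK-8666 at 30 mg/kg in feed. Fed glucose, food intake and weight on days 10, 17, 23, 28; glucose, GLP-1, GIP, PYY after 6 h fast, 1 h post dose. Hormones by MSD immunoassay or bead panel.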

[1] = test system: pancreatic islets from wild type and GPR40−/− mice; assay: Isolated pancreatic islets static GDIS assay (insulin, glucagon secretion); assay type: cell-based, mouse; design: Islet insulin / Islet insulin, mean: unit not given here; details: for glucagon secretion from islets: ex vivo; for Islet Glucagon / Islet insulin: individual replicates; for Islet Glucagon, mean / Islet insulin, mean: mean of replicates
Procedure: Pancreatic islets of Langerhans were isolated from wild type and GPR40^−/− mice (littermates) by collagenase digestion and discontinuous Ficoll gradient separation. […] Insulin secretion was determined by a 1-h static incubation in Krebs-Ringer bicarbonate (KRB) buffer in a 96-well format as previously described. […] The buffer was removed from the wells at the end of the incubation and assayed for insulin levels using the Insulin ELISA kit (ALPCO, Salem, NH) and glucagon level using glucagon ELISA kit (ALPCO, Salem, NH).

COc1ccc(F)c(-c2ccc([C@@H]3CCc4ccc([C@H](C5CC5)[C@H](C)C(=O)O)cc4O3)cc2)c1 [AP1]
Food Intake Over Time (Fig 3C) (GK rats; 30 mpk, Day 10): 14.85 and 15.61 and 15.57 and 15.255 and 16.22
Food Intake Over Time (Fig 3C) (GK rats; 30 mpk, Day 17): 15.5286 and 15.8857 and 16.0214 and 17.2929 and 17.7357
Food Intake Over Time (Fig 3C) (GK rats; 30 mpk, Day 23): 16.8417 and 19.1417 and 18.7583 and 18.725 and 18.4
Food Intake Over Time (Fig 3C) (GK rats; 30 mpk, Day 28): 16.96 and 17.9 and 19.14 and 19.07 and 19.25
Fed glucose on day 28 (Fig 3B) (GK rats; 30 mpk, day 28, fed, individual animals): 126 and 113 and 121 and 107 and 114 and 98 and 108 and 105 and 131
fed blood glucose vs partial agonist MK-8666 (GK rats; GK rat, 30 mg/kg, day 28): significantly reduced
Total Body Weight Change Over Time (GK rats; 30 mpk, Day 0, individual animals (Fig 3D)): 0
Active GLP-1 Levels Over Time (GK rats; 30 mpk, Day 0, individual animals (Fig 4B), 30 mg/kg): 1.001 and 1.9298 and 1.3237 and 1.012 and 1.8577 and 2.191 and 1.713 and 1.556 and 0.8866 and 1.073
GIP Levels Over Time (GK rats; 30 mpk, Day 0, individual animals (Fig 4C), 30 mg/kg, in pg/mL (unit assumed)): 80.27 and 43.35 and 55.2 and 66.33 and 82.49 and 41.1 and 77.69 and 54.81 and 38.69 and 31.07
PYY Levels Over Time (GK rats; 30 mpk, Day 0, individual animals (Fig 4D), 30 mg/kg): 60.82 and 59.71 and 48.43 and 38.89 and 91.83 and 69.38 and 126.38 and 46.38 (2×) and 80.42
Plasma Insulin Over Time (GK rats; 30 mpk, Day 0, individual animals (Fig 5A), 30 mg/kg): 1.323 ng/mL and 1.278 ng/mL and 2.387 ng/mL and 1.318 ng/mL and 1.715 ng/mL and 1.561 ng/mL and 2.638 ng/mL and 2.341 ng/mL and 1.122 ng/mL and 2.349 ng/mL
Total Body Weight Change Over Time (GK rats; 30 mpk, Day 10, individual animals (Fig 3D), 30 mg/kg): 10 and 3 (2×) and 13 and 6 and 2 (3×) and -13 and 5
Active GLP-1 Levels Over Time (GK rats; 30 mpk, Day 10, individual animals (Fig 4B), 30 mg/kg): 10.3955 and 6.299 and 7.593 and 12.0213 and 6.042 and 7.2 and 9.814 and 9.197 and 8.5449 and 7.4703
GIP Levels Over Time (GK rats; 30 mpk, Day 10, individual animals (Fig 4C), 30 mg/kg, in pg/mL (unit assumed)): 505.7 and 493.84 and 467.75 and 217.82 and 519.4 and 141.67 and 384.6 and 413 and 296.23 and 81.09
PYY Levels Over Time (GK rats; 30 mpk, Day 10, individual animals (Fig 4D), 30 mg/kg, in pg/mL (unit assumed)): 253.19 and 328.35 and 279.77 and 271.66 and 270.68 and 232.37 and 216.99 and 227.15 and 181.2 and 198.89
Plasma Insulin Over Time (GK rats; 30 mpk, Day 10, individual animals (Fig 5A), 30 mg/kg): 1.155 ng/mL and 0.724 ng/mL and 1.551 ng/mL and 0.8718 ng/mL and 1.112 ng/mL and 0.8329 ng/mL and 1.613 ng/mL and 0.7139 ng/mL and 1.088 ng/mL and 1.543 ng/mL
Total Body Weight Change Over Time (GK rats; 30 mpk, Day 17, individual animals (Fig 3D), 30 mg/kg): 18 (2×) and 8 and 24 and 16 and 0 and 7 and -9 and 10 and 9
Active GLP-1 Levels Over Time (GK rats; 30 mpk, Day 17, individual animals (Fig 4B), 30 mg/kg): 8.6 and 3.38 and 5.23 and 6.69 and 6.32 and 4.97 and 3.57 and 4.69 and 6.47 and 5.55
GIP Levels Over Time (GK rats; 30 mpk, Day 17, individual animals (Fig 4C), 30 mg/kg, in pg/mL (unit assumed)): 378.278 and 410.03 and 370.39 and 471.66 and 268.89 and 337.14 and 352.79 and 447.92 and 402.03
PYY Levels Over Time (GK rats; 30 mpk, Day 17, individual animals (Fig 4D), 30 mg/kg, in pg/mL (unit assumed)): 228.528 and 168.33 and 149.79 and 211.65 and 178.66 and 141.57 and 165.72 and 207.01 and 161.08
Plasma Insulin Over Time (GK rats; 30 mpk, Day 17, individual animals (Fig 5A), 30 mg/kg): 1.312 ng/mL and 1.435 ng/mL and 1.262 ng/mL and 0.9925 ng/mL and 0.7824 ng/mL and 0.7213 ng/mL and 1.004 ng/mL and 1.148 ng/mL and 1.876 ng/mL and 2.528 ng/mL
Total Body Weight Change Over Time (GK rats; 30 mpk, Day 23, individual animals (Fig 3D), 30 mg/kg): 24 and 11 and 37 and 25 and 27 and 22 and 16 and -6 and 9 and 12
Total Body Weight Change Over Time (GK rats; 30 mpk, Day 28, individual animals (Fig 3D), 30 mg/kg): 32 and 14 and 36 and 27 and 34 and 30 and 23 and 3 and 20 and 21
Active GLP-1 Levels Over Time (GK rats; 30 mpk, Day 28, individual animals (Fig 4B), 30 mg/kg): 4.803 and 5.789 and 8.538 and 7.972 and 5.7178 and 6.58 and 6.497 and 8.013 and 7.134 and 7.267
GIP Levels Over Time (GK rats; 30 mpk, Day 28, individual animals (Fig 4C), 30 mg/kg, in pg/mL (unit assumed)): 265.13 and 306.48 and 225.82 and 160.64 and 220.15 and 277.09 and 298.29 and 238.76 and 210.52 and 175.96
PYY Levels Over Time (GK rats; 30 mpk, Day 28, individual animals (Fig 4D), 30 mg/kg, in pg/mL (unit assumed)): 152.15 and 162.1 and 214.06 and 98.83 and 138.17 and 173.94 and 241.37 and 220.84 and 169.14 and 119.76
Plasma Insulin Over Time (GK rats; 30 mpk, Day 28, individual animals (Fig 5A), 30 mg/kg): 1.27 ng/mL and 1.377 ng/mL and 1.276 ng/mL and 0.4335 ng/mL and 1.675 ng/mL and 1.248 ng/mL and 2.339 ng/mL and 0.9305 ng/mL and 0.8869 ng/mL and 1.165 ng/mL
glucagon secretion from islets ([1]; GPR40-/- mouse islets): abolished
Islet Glucagon ([1]; KO mouse islets, G2, 1uM): 8.295 pg/ml/ islet and 16.584 pg/ml/ islet and 5.331 pg/ml/ islet and 9.664 pg/ml/ islet and 1.86 pg/ml/ islet and 24.388 pg/ml/ islet and 22.826 pg/ml/ islet and 23.18 pg/ml/ islet and 16.858 pg/ml/ islet and 27.237 pg/ml/ islet
Islet insulin ([1]; KO mouse islets, G2, 1uM): 0.224 and 0.186 and 0.933 and 0.721 and 1.124 and 0.514 and 0.261 and 0.152 and 0.181 and 0.215
Islet Glucagon, mean ([1]; KO mouse islets, G2, 1uM): 15.6223 pg/ml/ islet
Islet insulin, mean ([1]; KO mouse islets, G2, 1uM): 0.4511
Islet Glucagon ([1]; KO mouse islets, G16, 1uM): 5.183 pg/ml/ islet and 12.803 pg/ml/ islet and 9.635 pg/ml/ islet and 3.883 pg/ml/ islet and 11.858 pg/ml/ islet and 6.688 pg/ml/ islet and 0.121 pg/ml/ islet and 5.519 pg/ml/ islet and 6.26 pg/ml/ islet and 3.878 pg/ml/ islet
Islet insulin ([1]; KO mouse islets, G16, 1uM): 2.959 and 3.403 and 3.966 and 2.272 and 3.839 and 3.783 and 2.961 and 3.664 and 2.593 and 1.94
Islet Glucagon, mean ([1]; KO mouse islets, G16, 1uM): 6.5828 pg/ml/ islet
Islet insulin, mean ([1]; KO mouse islets, G16, 1uM): 3.138
Islet Glucagon ([1]; WT mouse islets, G2, 1uM): 55.828 pg/ml/ islet and 87.628 pg/ml/ islet and 54.498 pg/ml/ islet and 21.019 pg/ml/ islet and 35.248 pg/ml/ islet and 60.615 pg/ml/ islet and 73.937 pg/ml/ islet and 63.3 pg/ml/ islet and 50.656 pg/ml/ islet and 33.503 pg/ml/ islet
Islet insulin ([1]; WT mouse islets, G2, 1uM, listed as L-005306254): 0.53 and 1.151 and 0.66 and 1.39 and 2.61 and 1.55 and 1.058 and 0.71 and 0.4565 and 0.7725
Islet Glucagon, mean ([1]; WT mouse islets, G2, 1uM): 53.6232 pg/ml/ islet
Islet insulin, mean ([1]; WT mouse islets, G2, 1uM): 1.0888
Islet Glucagon ([1]; WT mouse islets, G16, 1uM): 29.473 pg/ml/ islet and 34.729 pg/ml/ islet and 57.354 pg/ml/ islet and 33.737 pg/ml/ islet and 7.252 pg/ml/ islet and 14.915 pg/ml/ islet and 23.157 pg/ml/ islet and 23.385 pg/ml/ islet and 38.776 pg/ml/ islet
Islet insulin ([1]; WT mouse islets, G16, 1uM, listed as L-005306254): 12.607 and 12.478 and 13.17 and 12.065 and 9.432 and 10.077 and 12.044 and 12.3 and 10.845 and 11.903
Islet Glucagon, mean ([1]; WT mouse islets, G16, 1uM): 29.1976 pg/ml/ islet
Islet insulin, mean ([1]; WT mouse islets, G16, 1uM): 11.6921
glucagon secretion from islets ([1]; WT mouse islets): significantly elevated
